Measured values published in ChEMBL document CHEMBL1136743, “Design, synthesis, and biological evaluation of C9- and C2-substituted pyrazolo[4,3-e]-1,2,4-triazolo[1,5-c]pyrimidines as new A2A and A3 adenosine receptors antagonists” (J Med Chem, 2003).

Assays:
Adenosine receptor A3 [1] = target: T1, Adenosine receptor A3 (Homo sapiens, UniProt P0DMS8); assay: biochemical
T1 sequence (P0DMS8 whole entry): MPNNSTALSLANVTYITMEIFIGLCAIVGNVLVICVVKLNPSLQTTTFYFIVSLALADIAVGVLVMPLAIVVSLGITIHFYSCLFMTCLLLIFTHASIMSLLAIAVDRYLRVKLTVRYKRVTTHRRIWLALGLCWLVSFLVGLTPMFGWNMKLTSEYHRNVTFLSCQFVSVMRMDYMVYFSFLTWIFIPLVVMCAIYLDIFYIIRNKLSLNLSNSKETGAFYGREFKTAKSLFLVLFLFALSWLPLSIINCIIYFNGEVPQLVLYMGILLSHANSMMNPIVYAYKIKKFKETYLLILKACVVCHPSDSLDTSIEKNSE
Description: (§1) Displacement of [3H]- MRE 308F20 binding from human Adenosine A3 receptor expressed in CHO cells

Adenosine receptor A2b [2] = target: T2, Adenosine receptor A2b (Homo sapiens, UniProt P29275); assay: biochemical
T2 sequence (P29275 whole entry): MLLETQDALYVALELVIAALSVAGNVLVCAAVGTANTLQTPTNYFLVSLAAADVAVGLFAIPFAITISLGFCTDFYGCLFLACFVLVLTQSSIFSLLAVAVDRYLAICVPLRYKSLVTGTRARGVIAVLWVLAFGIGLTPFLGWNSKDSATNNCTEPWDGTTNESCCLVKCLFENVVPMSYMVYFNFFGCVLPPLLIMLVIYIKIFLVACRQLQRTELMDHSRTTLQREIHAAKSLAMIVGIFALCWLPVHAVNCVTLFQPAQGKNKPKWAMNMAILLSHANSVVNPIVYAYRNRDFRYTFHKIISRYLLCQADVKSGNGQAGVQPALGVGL
Description: (§2) Displacement of [3H]- DPCPX from human adenosine A2B receptor expressed in HEK293 cells

Adenosine receptor A2a [3] = target: T3, Adenosine receptor A2a (Homo sapiens, UniProt P29274); assay: biochemical
T3 sequence (P29274 whole entry): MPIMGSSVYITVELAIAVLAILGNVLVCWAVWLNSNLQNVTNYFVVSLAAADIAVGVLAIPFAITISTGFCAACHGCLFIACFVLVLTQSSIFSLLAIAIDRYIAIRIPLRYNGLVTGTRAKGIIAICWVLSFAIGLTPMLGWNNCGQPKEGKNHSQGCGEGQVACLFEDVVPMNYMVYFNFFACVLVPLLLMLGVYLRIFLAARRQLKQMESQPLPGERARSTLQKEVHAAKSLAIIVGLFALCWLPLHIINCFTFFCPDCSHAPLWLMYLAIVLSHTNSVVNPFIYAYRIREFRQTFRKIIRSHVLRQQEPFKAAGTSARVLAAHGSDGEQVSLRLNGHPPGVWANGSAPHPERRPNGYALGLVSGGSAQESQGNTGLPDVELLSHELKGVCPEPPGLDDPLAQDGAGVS

Adenosine receptor A2b [4] = target: T4, Adenosine receptor A2b (Rattus norvegicus, UniProt P29276)
T4 sequence (P29276 whole entry): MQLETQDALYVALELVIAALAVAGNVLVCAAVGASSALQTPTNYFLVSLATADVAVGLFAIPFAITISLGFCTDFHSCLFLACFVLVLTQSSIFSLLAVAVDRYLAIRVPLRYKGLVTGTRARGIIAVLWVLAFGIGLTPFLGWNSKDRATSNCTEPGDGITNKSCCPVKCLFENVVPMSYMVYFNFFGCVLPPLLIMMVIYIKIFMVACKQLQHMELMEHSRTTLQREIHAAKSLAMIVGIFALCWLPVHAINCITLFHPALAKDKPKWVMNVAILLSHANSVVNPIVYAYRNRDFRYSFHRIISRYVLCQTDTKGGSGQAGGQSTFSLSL

Adenosine receptor A3 [5] = target: T1, Adenosine receptor A3
Adenosine receptor A2a [6] = target: T3, Adenosine receptor A2a
Adenosine receptor A1 = target: T5, Adenosine receptor A1 (Homo sapiens, UniProt P30542); assay: biochemical
T5 sequence (P30542 whole entry): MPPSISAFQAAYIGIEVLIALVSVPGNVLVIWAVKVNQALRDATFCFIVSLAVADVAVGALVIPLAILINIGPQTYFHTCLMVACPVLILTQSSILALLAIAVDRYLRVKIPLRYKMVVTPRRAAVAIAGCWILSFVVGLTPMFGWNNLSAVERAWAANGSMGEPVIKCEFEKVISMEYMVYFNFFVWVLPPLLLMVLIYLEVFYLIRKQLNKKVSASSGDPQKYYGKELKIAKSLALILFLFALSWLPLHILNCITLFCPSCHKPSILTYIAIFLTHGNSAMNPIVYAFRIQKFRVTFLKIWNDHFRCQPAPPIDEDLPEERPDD
Description: Displacement of [3H]- DPCPX binding at human Adenosine A1 receptor expressed in CHO cells

Adenosine receptor A2b [7] = target: T2, Adenosine receptor A2b; assay: biochemical; remark: listed apart in the source
Description: as §2

Adenosine receptor A2a [8] = target: T3, Adenosine receptor A2a; assay: biochemical; remark: listed apart in the source
Adenosine receptor A3 [9] = target: T1, Adenosine receptor A3; settings: cho
Description: as §1

## CN1CCN(c2c3c(nc(N)n4nc(-c5ccco5)nc34)nn2C)CC1 [listing 1 of 2 here]
Adenosine receptor A3 [1]
  Ki: > 1000 nM

## Cn1nc2nc(N)n3nc(-c4ccco4)nc3c2c1Nc1ccc(O)cc1
Adenosine receptor A2b [2]
  Ki: > 1000 nM
Adenosine receptor A2a [3]
  Ki: > 1000 nM

## Nc1nc2c(cnn2CCc2ccccc2)c2nc(-c3ccco3)nn12 [SCH-58261]
Adenosine receptor A2b [4]
  Ki: > 1000 nM

## COc1ccc(NC(=O)Nc2nc3nn(C)c(SC)c3c3nc(-c4ccco4)nn23)cc1
Adenosine receptor A3 [5]
  IC50: 813 nM

## CCNc1c2c(nc(NC(=O)Nc3ccc(OC)cc3)n3nc(-c4ccco4)nc23)nn1C [listing 1 of 2 here]
Adenosine receptor A2a [6]
  IC50: 61 nM
Adenosine receptor A3 [5]
  IC50: 45 nM

## COc1ccc(CC(=O)Nc2nc3nn(C)c(SC)c3c3nc(-c4ccco4)nn23)cc1
Adenosine receptor A3 [1]
  Ki: > 1000 nM

## CSc1c2c(nc(NC(=O)Cc3ccc(CC(C)C)cc3)n3nc(-c4ccco4)nc23)nn1C
Adenosine receptor A2b [2]
  Ki: 180 nM
Adenosine receptor A3 [1]
  Ki: > 1000 nM

## CSc1c2c(nc(N)n3nc(-c4ccco4)nc23)nn1CCCc1ccccc1
Adenosine receptor A3 [1]
  Ki: > 1000 nM

## CCNc1c2c(nc(NC(=O)Nc3ccc(OC)cc3)n3nc(-c4ccco4)nc23)nn1C [listing 2 of 2 here]
Adenosine receptor A3 [1]
  Ki: 14 nM
Adenosine receptor A2a [3]
  Ki: 21 nM

## CSc1c2c(nc(N)n3nc(-c4ccc(CN5CCN(C)CC5)o4)nc23)nn1C
Adenosine receptor A1
  Ki: > 1000 nM
Adenosine receptor A2b [2]
  Ki: > 1000 nM
Adenosine receptor A3 [1]
  Ki: > 1000 nM
Adenosine receptor A2a [3]
  Ki: > 1000 nM

## Nc1nc2c(cnn2CCc2ccccc2)c2nc(-c3ccccc3)nn12
Adenosine receptor A1
  Ki: 235 nM
Adenosine receptor A2b [7]
  Ki: > 1000 nM
Adenosine receptor A3 [1]
  Ki: > 1000 nM
Adenosine receptor A2a [3]
  Ki: > 1000 nM

## CCCSc1c2c(nc(N)n3nc(-c4ccco4)nc23)nn1C
Adenosine receptor A2a [6]
  IC50: 14.8 nM
Adenosine receptor A3 [5]
  IC50: 852 nM

## CCNc1c2c(nc(N)n3nc(-c4ccco4)nc23)nn1C
Adenosine receptor A3 [5]
  IC50: 103 nM

## Nc1nc2c(cnn2CCc2ccccc2)c2nc(-c3ccc(CN4CCOCC4)o3)nn12
Adenosine receptor A1
  Ki: > 1000 nM
Adenosine receptor A2b [2]
  Ki: > 1000 nM
Adenosine receptor A3 [1]
  Ki: > 1000 nM
Adenosine receptor A2a [8]
  Ki: > 1000 nM

## CSc1c2c(nc(N)n3nc(-c4ccco4)nc23)nn1C
Adenosine receptor A2a [6]
  IC50: 6.1 nM
Adenosine receptor A3 [5]
  IC50: 188 nM

## CSc1c2c(nc(NC(=O)Cc3ccc4c(c3)OCO4)n3nc(-c4ccco4)nc23)nn1C
Adenosine receptor A3 [5]
  IC50: 466 nM

## CN1CCN(Cc2ccc(-c3nc4c5cnn(CCc6ccccc6)c5nc(N)n4n3)o2)CC1
Adenosine receptor A1
  Ki: > 1000 nM
Adenosine receptor A2b [2]
  Ki: > 1000 nM
Adenosine receptor A3 [1]
  Ki: > 1000 nM
Adenosine receptor A2a [8]
  Ki: > 1000 nM

## CN1CCN(c2c3c(nc(N)n4nc(-c5ccco5)nc34)nn2C)CC1 [listing 2 of 2 here]
Adenosine receptor A3 [9]
  Ki: > 1000 nM

## COc1ccc(NC(=O)Nc2nc3nn(C)c(N4CCN(C)CC4)c3c3nc(-c4ccco4)nn23)cc1
Adenosine receptor A3 [1]
  Ki: > 1000 nM
Adenosine receptor A2a [3]
  Ki: > 1000 nM
